Assay results from patent publication US6670367B1, “Azinyloxy, and phenoxy-diaryl-carboxylic acid derivatives, their preparation and use as mixed ETA/ETB endothelin receptor antagonists” (Abbott GmbH & Co., KG, priority 1996, dated 2003).

What was measured:
human ETA receptor = molecular target: T1, human ETA receptor (Homo sapiens, UniProt P25101); assay: ETA receptor binding assay (125I-ET1, membranes of receptor-expressing CHO cells); details: cloned human ETA receptor, CHO cell membranes, 25 pM 125I-ET1, 25° C., 30 min
T1 construct: expressed in transfected cells; host or cells: CHO cells (membrane preparation)
T1 sequence (P25101 21-427): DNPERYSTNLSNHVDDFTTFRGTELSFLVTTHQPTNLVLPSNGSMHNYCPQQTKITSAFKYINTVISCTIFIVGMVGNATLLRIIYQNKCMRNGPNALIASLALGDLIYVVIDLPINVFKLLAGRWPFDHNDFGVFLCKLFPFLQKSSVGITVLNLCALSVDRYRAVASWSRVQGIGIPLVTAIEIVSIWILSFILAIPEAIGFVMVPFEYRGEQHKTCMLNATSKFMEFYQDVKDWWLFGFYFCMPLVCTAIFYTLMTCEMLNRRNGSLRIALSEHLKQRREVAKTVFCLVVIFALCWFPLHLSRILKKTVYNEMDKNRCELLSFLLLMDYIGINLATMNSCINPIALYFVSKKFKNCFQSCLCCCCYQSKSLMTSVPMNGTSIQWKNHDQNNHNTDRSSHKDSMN
Method: (§1) Cloned human ETA or ETB receptor-expressing CHO cells were employed for binding studies.
(§2) The ETA or ETB receptor-expressing CHO cells were grown in DMEM NUT MIX F12 medium (Gibco, No. 21331-020) with 10% fetal calf serum (PAA Laboratories GmbH, Linz, No. A15-022), 1 mM glutamine (Gibco No. 25030-024), 100 U/ml penicillin and 100 μg/ml streptomycin (Gibco, Sigma No. P-0781). After 48 hours, the cells were washed with PBS and incubated with 0.05% trypsin-containing PBS at 37° C. for 5 minutes. Neutralization with medium was then carried out, and the cells were collected by centrifugation at 300×g.
(§3) For the membrane preparation, the cells were adjusted to a concentration of 10^8 cells/ml of buffer (50 mM tris.HCL buffer, pH 7.4) and then disintegrated by ultrasound (Branson Sonifier 250, 40-70 seconds/constant/output 20).
(§4) For the ETA and ETB receptor binding assays, the membranes were suspended in incubation buffer (50 mM tris-HCl, pH 7,4 with 5 mM MnCl2, 40 μg/ml bacitracin and 0.2% BSA) at a concentration of 50 μg of protein per assay mixture, and incubated with 25 pM ^125I-ET1 (ETA receptor assay) or 25 pM ^125I-ET3 (ETB receptor assay) in the presence and absence of test substance at 25° C. The nonspecific binding was determined with 10^−7 M ET1. Filtration was carried out after 30 min through GF/B glassfiber filters (Whatman, England) in a Skatron cell collector (Skatron, Lier, Norway) to separate free and bound radio ligands, and the filters were washed with ice-cold tris-HCl buffer, pH 7.4 with 0.2% BSA. The radioactivity collected on the filters was quantified using a
(§5) Packard 2200 CA liquid scintillation counter.

human ETB receptor = molecular target: T2, human ETB receptor (Homo sapiens, UniProt P24530); assay: ETB receptor binding assay (125I-ET3, membranes of receptor-expressing CHO cells); details: cloned human ETB receptor, CHO cell membranes, 25 pM 125I-ET3, 25° C., 30 min
T2 construct: expressed in transfected cells; host or cells: CHO cells (membrane preparation)
T2 sequence (P24530 27-442): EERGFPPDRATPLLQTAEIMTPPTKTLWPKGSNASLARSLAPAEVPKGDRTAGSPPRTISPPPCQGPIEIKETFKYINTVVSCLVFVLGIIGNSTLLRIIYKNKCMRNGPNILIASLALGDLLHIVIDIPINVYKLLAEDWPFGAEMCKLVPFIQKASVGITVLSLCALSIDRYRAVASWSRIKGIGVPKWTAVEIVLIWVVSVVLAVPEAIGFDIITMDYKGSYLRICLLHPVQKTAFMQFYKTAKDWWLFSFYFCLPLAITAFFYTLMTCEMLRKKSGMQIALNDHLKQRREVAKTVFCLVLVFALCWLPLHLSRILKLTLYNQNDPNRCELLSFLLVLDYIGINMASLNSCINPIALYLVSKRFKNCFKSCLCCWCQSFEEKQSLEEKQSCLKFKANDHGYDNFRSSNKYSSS
Method: as §1, §2, §3, §4, §5

| Ki (human ETA receptor) [nM] | Ki (human ETB receptor) [nM] | melting point | Compound |
| --- | --- | --- | --- |
| 575 | 460 |  | COc1ccccc1CCOC(c1ccccc1)(c1ccccc1)C(Oc1nc(OC)c2c(n1)OCC2)C(=O)O (stereo not drawn) [Compound I-140] |
| 340 | 290 |  | COc1cc(CCOC(c2ccccc2)(c2ccccc2)C(Oc2nc3c(c(OC)n2)CCC3)C(=O)O)cc(OC)c1 (stereo not drawn) [Compound I-321] |
| 300 | 160 | 90 to 100 °C | COc1cc(CCOC(c2ccc(Cl)cc2)(c2ccc(Cl)cc2)C(Oc2nc(OC)c3c(n2)OCC3)C(=O)O)cc(OC)c1 (stereo not drawn) [Compound I-593, 2-(4-Methoxy-5,6-dihydrofuro(2,3d)-2-pyrimidinyloxy)-3-(2-(3,5-dimethoxyphenyl)ethoxy)-3,3-di(4-chlorophenyl)propionic Acid] |
| 20 | 96 | 108 °C (dec.) | Cc1cc(C)nc(OC(C(=O)O)C(OCCc2ccc(Cl)cc2)(c2ccccc2)c2ccccc2)n1 (stereo not drawn) [Compound I-713, 2-(4,6-Dimethyl-2-pyrimidinyloxy)-3-(2-(4-chlorophenyl)ethoxy)-3,3-diphenylpropionic Acid] |

Further lines, the compound ahead of its results:

| Compound | Ki (human ETA receptor) [nM] | Ki (human ETB receptor) [nM] | melting point |
| --- | --- | --- | --- |
| COc1ccc(CCOC(c2ccc(Cl)cc2)(c2ccc(Cl)cc2)C(Oc2nc(OC)c3c(n2)OCC3)C(=O)O)cc1OC (stereo not drawn) [Compound I-635, 2-(4-Methoxy-5,6-dihydrofuro(2,3d)-2-pyrimidinyloxy)-3-(2-(3,4-dimethoxyphenyl)ethoxy)-3,3-di(4-chlorophenyl)propionic Acid] | 210 | 126 | 100 to 110 °C |
| COc1nc(OC(C(=O)O)C(OCCc2ccc(C)cc2)(c2ccccc2)c2ccccc2)nc2c1CCO2 (stereo not drawn) [Compound I-370, 2-(4-Methoxy-5,6-dihydrofuro(2,3d)-2-pyrimidinyloxy)-3-(2-(4-methylphenyl)ethoxy)-3,3-diphenylpropionic Acid] | 11 | 54 | 128 to 130 °C |
| COc1cc(C)nc(OC(C(=O)O)C(OCCc2ccc(OC)c(OC)c2)(c2ccc(Cl)cc2)c2ccc(Cl)cc2)n1 (stereo not drawn) [Compound I-699, 2-(4-Methoxy-6-methyl-2-pyrimidinyloxy)-3-(2-(3,4-dimethoxyphenyl)ethoxy)-3,3-di(4-chlorophenyl)propionic Acid] | 230 | 130 | 100 to 110 °C |
| COc1cc(C)nc(OC(C(=O)O)C(OCCc2ccc(OC)c(OC)c2)(c2ccccc2)c2ccccc2)n1 (stereo not drawn) [Compound I-482, 2-(4-Methoxy-6-methyl-2-pyrimidinyloxy)-3-(2-(3,4-dimethoxyphenyl)ethoxy)-3,3-diphenylpropionic Acid] | 2 | 14 |  |
| COc1ccc(CCOC(c2ccccc2)(c2ccccc2)C(Oc2nc(C)cc(C)n2)C(=O)O)cc1OC (stereo not drawn) [Compound I-445] | 3.5 | 7.2 | 125 to 130 °C (dec.) |
